Reference: patent publication US6818765B1, “Benzene-sulphonamide derivatives and their uses” (Universite de Liege, priority 1999, dated 2004)
Read-outs that look alike come from different tables or passages of the source.

Target: T1, thromboxane A2 receptors (TPα) of human platelets (Homo sapiens, UniProt P21731)
T1 construct: endogenous in cells; host or cells: human platelets
T1 sequence (P21731 1-343): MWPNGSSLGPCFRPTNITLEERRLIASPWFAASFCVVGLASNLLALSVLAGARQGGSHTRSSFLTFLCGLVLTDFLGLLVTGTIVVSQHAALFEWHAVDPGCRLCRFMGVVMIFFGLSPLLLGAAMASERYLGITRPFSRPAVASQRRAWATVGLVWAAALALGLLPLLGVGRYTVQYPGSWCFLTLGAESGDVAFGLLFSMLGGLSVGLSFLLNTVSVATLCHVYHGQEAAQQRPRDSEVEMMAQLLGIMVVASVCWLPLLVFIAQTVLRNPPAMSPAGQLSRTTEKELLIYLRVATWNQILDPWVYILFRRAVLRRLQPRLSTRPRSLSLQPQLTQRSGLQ
Experiment: Binding test: displacement of [3H]SQ-29.548 from human platelet thromboxane A2 receptors
Conditions: for inhibition at 1 µM: read-out: Affinity: percent of [3H]SQ-29.548 specifically substituted by the examined compound, compound 10^-6 M; for inhibition at 0.1 µM: read-out: Affinity: percent of [3H]SQ-29.548 specifically substituted by the examined compound, compound 10^-7 M
Text: To operate a first selection, the capacity of these compounds to displace in a specific way a tritium ligand, the [^3H]
Cozzi P., Giordani A., Menichincheri M., Pillan A., Pinciroli V., Rossi A., Tonani R., Volpi D., Tamburin M., Ferrario R., Fusar D., Salvati P.,—Agents combining thromboxane receptor antagonism with thromboxane synthase inhibition:[[[2-(1H-imidazol-1-yl)ethylidene]amino]oxy]alkanoic acids.—J. Med. Chem., 1994, 37, 3588-3604.

Compound	Affinity: percent of [3H]SQ-29.548 specifically substituted by the examined compound, 10^-6M [%]	IC50 [nM]	inhibition at 1 µM [%]	further results
CCCCCNC(=O)NS(=O)(=O)c1cc([N+](=O)[O-])ccc1Nc1ccc(C)cc1 [Compound 95]	–	1.45	98.5	–
CCCCCCCCNC(=O)NS(=O)(=O)c1cc([N+](=O)[O-])ccc1NC1CCCCC1 [Compound 85]	–	107	92.9	inhibition at 0.1 µM: 42.5%
CCNC(=O)NS(=O)(=O)c1cc([N+](=O)[O-])ccc1NC1CCCCC1 [Compound 27]	79.6	–	–	–
CC(C)(C)NC(=NC#N)NS(=O)(=O)c1cc([N+](=O)[O-])ccc1NC1CCCCC1 [Compound 74]	90.9	–	–	–
Cc1cccc(Nc2ccc([N+](=O)[O-])cc2S(=O)(=O)NC(=C[N+](=O)[O-])NC2CCCCC2)c1 [Compound 10]	57.7	–	–	–
CC(C)NC(=NC#N)NS(=O)(=O)c1cc([N+](=O)[O-])ccc1NC1CCCCCC1 [Compound 8]	33.0	–	–	–
CC(C)NC(=O)NS(=O)(=O)c1cc(C#N)ccc1NC1CC2CCC1C2 (stereo not shown) [Compound 66]	49.6	–	–	–
CC(C)NC(=NC#N)NS(=O)(=O)c1cc([N+](=O)[O-])ccc1NC1CCCCC1 [Compound 7]	42.9	–	–	–
CC(C)NC(=NC#N)NS(=O)(=O)c1cc([N+](=O)[O-])ccc1NC1CCCCCCC1 [Compound 9]	15.4	–	–	–
N#CN=C(NC1CCCCC1)NS(=O)(=O)c1cc([N+](=O)[O-])ccc1NC1CCCCC1 [Compound 5]	72.1	–	–	–
CCCCCCNc1ccc([N+](=O)[O-])cc1S(=O)(=O)NC(=O)NC(C)(C)C [Compound 59]	92.2	–	–	–
CC(C)NC(=O)NS(=O)(=O)c1cc([N+](=O)[O-])ccc1NC12CC3CC(CC(C3)C1)C2 [Compound 58]	83.2	–	–	–
CC(C)NC(=O)NS(=O)(=O)c1cc([N+](=O)[O-])ccc1N1CCCCCC1 [Compound 64]	57.8	–	–	–
C=CCNC(=O)NS(=O)(=O)c1cc([N+](=O)[O-])ccc1NC1CCCCCCC1 [Compound 34]	77.3	–	–	–
C=CCNC(=O)NS(=O)(=O)c1cc([N+](=O)[O-])ccc1NC1CCCCCC1 [Compound 33]	86.6	–	–	Affinity: percent of [3H]SQ-29.548 specifically substituted by the examined compound, 10^-7M: 52.4%
CC(C)(C)NC(=O)NS(=O)(=O)c1cc([N+](=O)[O-])ccc1NC1CC2CCC1C2 (stereo not shown) [Compound 55]	–	3.4	98.2	inhibition at 0.1 µM: 93.3%
N#CN=C(NC1CCCCC1)NS(=O)(=O)c1cc([N+](=O)[O-])ccc1NC1CCCC1 [Compound 4]	50.0	–	–	–
O=[N+]([O-])c1ccc(NC2CCCCCCC2)c(S(=O)(=O)NC(=S)NC2CCCCC2)c1 [Compound 41]	75.9	–	–	–
CCNC(=O)NS(=O)(=O)c1cc([N+](=O)[O-])ccc1NC1CCCCCC1 [Compound 28]	81.9	–	–	Affinity: percent of [3H]SQ-29.548 specifically substituted by the examined compound, 10^-7M: 39.6%
CC(C)(C)NC(=O)NS(=O)(=O)c1cc([N+](=O)[O-])ccc1NC1CCCCCCC1 [Compound 26]	–	16.9	94.3	inhibition at 0.1 µM: 93.3%
Cc1cccc(Nc2ccc([N+](=O)[O-])cc2S(=O)(=O)NC(=NC#N)NC2CCCCC2)c1 [Compound 6]	29.8	–	–	–
CC(C)NC(=O)NS(=O)(=O)c1cc([N+](=O)[O-])ccc1N1CCOCC1 [Compound 62]	3.7	–	–	–
CC(C)NC(=O)NS(=O)(=O)c1cc(I)ccc1NC1C=CCCC1 (stereo not shown) [Compound 72]	86.5	–	–	Affinity: percent of [3H]SQ-29.548 specifically substituted by the examined compound, 10^-7M: 52.7%

Second part, led by results:

Affinity: percent of [3H]SQ-29.548 specifically substituted by the examined compound, 10^-6M [%]	IC50 [nM]	inhibition at 1 µM [%]	Compound	further results
98.3	–	–	Cc1ccc(Nc2ccc([N+](=O)[O-])cc2S(=O)(=O)NC(=O)NC(C)(C)C)cc1 [Compound 67]	Affinity: percent of [3H]SQ-29.548 specifically substituted by the examined compound, 10^-7M: 95.8%; IC50 (read-out: IC 50: concentration required for replacing 50% of [3H]SQ-29.548 bound to receptors TPα): 1.3 nM
0.0	–	–	CC(C)NC(=O)NS(=O)(=O)c1cc([N+](=O)[O-])ccc1NC(C)(C)C [Compound 56]	–
80.5	–	–	C=CCNC(=O)NS(=O)(=O)c1cc([N+](=O)[O-])ccc1Nc1ccccc1 [Compound 31]	Affinity: percent of [3H]SQ-29.548 specifically substituted by the examined compound, 10^-7M: 42.2%
–	3.31	97.3	Cc1cccc(C)c1Nc1ccc([N+](=O)[O-])cc1S(=O)(=O)NC(=O)NC(C)C [Compound 91]	inhibition at 0.1 µM: 90.8%
–	3.5	97.6	CC(Nc1ccc([N+](=O)[O-])cc1S(=O)(=O)NC(=O)NC(C)(C)C)c1ccccc1 (racemic) [Compound 76]	inhibition at 0.1 µM: 93.5%
–	18.1	95.6	Cc1ccc(Nc2ccc([N+](=O)[O-])cc2S(=O)(=O)NC(=O)NC(C)C)cc1C [Compound 87]	inhibition at 0.1 µM: 76%
92.2	–	–	CC(C)NC(=O)NS(=O)(=O)c1cc([N+](=O)[O-])ccc1NCc1ccccc1 [Compound 21]	Affinity: percent of [3H]SQ-29.548 specifically substituted by the examined compound, 10^-7M: 44.2%
–	2	98.3	Cc1cccc(Nc2ccc([N+](=O)[O-])cc2S(=O)(=O)NC(=O)NC(C)C)c1C [Compound 49]	inhibition at 0.1 µM: 94.9%
–	4.2	95.3	C[C@H](Nc1ccc([N+](=O)[O-])cc1S(=O)(=O)NC(=O)NC(C)(C)C)c1ccccc1 [Compound 78]	inhibition at 0.1 µM: 71.6%
79.4	–	–	CC(C)NC(=O)NS(=O)(=O)c1cc([N+](=O)[O-])ccc1N[C@@H](C)c1ccccc1 [Compound 77]	–
–	2.4	98.6	C[C@@H](Nc1ccc([N+](=O)[O-])cc1S(=O)(=O)NC(=O)NC(C)(C)C)c1ccccc1 [Compound 80]	inhibition at 0.1 µM: 97.9%
93.2	–	–	CC(C)NC(=O)NS(=O)(=O)c1cc([N+](=O)[O-])ccc1NC1C=CCCC1 (stereo not shown) [Compound 68]	Affinity: percent of [3H]SQ-29.548 specifically substituted by the examined compound, 10^-7M: 67.4%
–	11.5	96.6	Cc1ccc(C)c(Nc2ccc([N+](=O)[O-])cc2S(=O)(=O)NC(=O)NC(C)C)c1 [Compound 89]	inhibition at 0.1 µM: 83.5%
73.7	–	–	Cc1cccc(Nc2ccc(C#N)cc2S(=O)(=O)NC(=O)NC(C)C)c1 [Compound 24]	–
–	16.2	95.4	Cc1cc(C)cc(Nc2ccc([N+](=O)[O-])cc2S(=O)(=O)NC(=O)NC(C)C)c1 [Compound 88]	inhibition at 0.1 µM: 82%
36.5	–	–	CC(C)NC(=O)NS(=O)(=O)c1cc([N+](=O)[O-])ccc1Nc1cccc(C(=O)O)c1 [Compound 53]	–
